The values that follow come from patent US20120232058A1, “SUBSTITUTED PYRIDINE DERIVATIVES AND THEIR MEDICAL USE” (NEUROSEARCH A/S, priority 2009, published 2012).

The target of assay [1] is T1, human Kv7.2+3 (Homo sapiens, UniProt O43525+O43526). Put plainly: FLIPR-based thallium influx characterization of Kv7.2+3 modulators. The format is cell-based. To be noted: for EC50: HEK293 cells over-expressing human Kv7.2+3, Tl+ influx, relative to retigabine control responses; for Efficacy: maximal response relative to the reference (retigabine) response. Further details: expressed in transfected cells; host or cells: HEK293. The protocol: This experiment determines the ability of a test compound to modulate the activity of Kv7.2+3 channels heterologously expressed in human HEK293 cells. The ability is determined relative to retigabine. The activity is determined using a standard thallium (I) sensitive assay, e.g. using a fluorometric method in a Fluorescent Image Plate Reader (FLIPR) as described below in more detail.
Full concentration/response curves are generated and EC50 values are calculated based on max values. EC50 values (Effective Concentration) represent the concentration of the test substance, at which 50% of the channel activity is obtained when compared to retigabine control responses. Maximal response determined relative to the reference (retigabine) response is calculated.
Human HEK293 cells over-expressing human Kv7.2+3 are grown in culture medium (DMEM supplemented with 10% foetal bovine serum), in polystyrene culture flasks ([…]) in a humidified atmosphere of 5% CO2 in air, at 37° C. Cell confluence should be 80-90% on day of plating. Cells are rinsed with 4 ml of PBS (phosphate buffered saline) and incubated 2 min with 1 ml of Trypsin-EDTA. After addition of 25 ml of culture medium cells are re-suspended by trituration with a 25 ml pipette.
The cells are seeded at a density of ˜3×10^6 cells/ml (25 μl/well) in black-walled, clear bottom, 384-well plates pre-treated with 0.01 g/I poly-D-lysin (20 μl/well for 30 min). Plated cells were allowed to proliferate for 24 h before loading with dye.
BTC-AM ([…], Invitrogen) is added 25.5 μl DMSO. The BTC-AM stock solution (2 mM) is diluted to a final concentration of 2 μM in Cl^− free assay buffer (in mM: 140 Na^+-gluconate, 2.5 K^+-gluconate, 6 Ca2^+-gluconate, 1 Mg^2+ gluconate, 5 glucose, 10 HEPES, pH 7.3) containing 2 μM ouabain, 2 mM amaranth and 1 mM tartrazine. […]
After the loading period, the TI^+-sensitive BTC fluorescence signal is measured over time using a FLIPR.
• Temperature: Room temp. • First addition: 12 μl test or control compound after 15 sec at a rate of 30 μl/sec and starting height of 20 μl • Second addition: 12 μl stimulus buffer (CI^− free assay buffer supplemented with 1 mM TI2SO4, 5 mM K2SO4 as well as the quenchers amaranth (2 mM) and tartrazine (1 mM)) is added after an additional 3 minutes at a rate of 30 μl/sec and starting height of 30 μl • Reading intervals: First sequence—3 sec×5, 2 sec×24 and 5 sec×25 Second sequence—1 sec×5, 2 sec×24 and 5 sec×36 Addition plates (compound plate and stimulus plate) are placed in positions 2 and 3, respectively. […] Fluorescence obtained after stimulation is corrected for the mean basal fluorescence (in Cl^− free assay buffer). […]

Assay [2] deals with T1, human Kv7.2+3. The experiment in a line: patch-clamp, HEK293 cell lines stably expressing human Kv7.2+3 channels. It counts as cell-based. Further details: expressed in transfected cells. To be noted: −30 mV, 20 ms, baseline current defined as 100%. An excerpt:
The effect obtained by these channel activators is described as a percentage increase in baseline current at a given concentration. The baseline current is defined as 100%, and an increase in current is expressed relative to this, i.e. an increase from 1 nA to 1.2 nA is reported as 120%.
For orientation: In patch-clamp work, channel activity is measured electrically.

The EC50 is the concentration giving half of the maximal effect. As for `Cc1ccoc1C(=O)Nc1c(C)cc(N2CCCOCC2)nc1C(C)C` [Compound 1.1, 3-Methyl-furan-2-carboxylic acid(2-isopropyl-4-methyl-6-[1,4]oxazepan-4-yl-pyridin-3-yl)-amide], on human Kv7.2+3 [1], the EC50 amounted to 34 nM and the Efficacy was found to be 82%. In addition, the “IK (%)” value at human Kv7.2+3 [2] (conc. 0.03 μM) is on record as 177 (n = 2) %. Also, the “IK (%)” value on human Kv7.2+3 [2] (conc. 0.3 μM) is on record as 249%.

On human Kv7.2+3 [1], `Cc1ccoc1C(=O)Nc1c(C)cc(N2CCCOCC2)nc1C` [Compound 1.2, 3-Methyl-furan-2-carboxylic acid(2,4-dimethyl-6-[1,4]oxazepan-4-yl-pyridin-3-yl)-amide] had an EC50 of 4100 nM and an Efficacy of 102%. The “IK (%)” value at human Kv7.2+3 [2] (conc. 0.3 μM) stood at 180%.
